Holding throughout (format): functional
Test [1] deals with Clostridioides difficile. Briefly: Antimicrobial activity against Clostridium difficile CD196 by broth dilution method. (In general: In broth dilution the organism is exposed to a series of concentrations in liquid medium.)
In test [2] the test system is Clostridioides difficile. The experiment in a line: Antimicrobial activity against Clostridium difficile CD07-259 by broth dilution method.
Test [3] has as its system Clostridioides difficile. Briefly: Antimicrobial activity against Clostridium difficile ATCC 43603 by broth dilution method.
Test [4] deals with Clostridioides difficile. Briefly: Antimicrobial activity against Clostridium difficile 6269 by broth dilution method.
In test [5] the test system is Clostridioides difficile. The experiment in a line: Antimicrobial activity against Clostridium difficile 6425 by broth dilution method.
The subject of test [6] is Clostridioides difficile. The experiment in a line: Upregulation of fbp68 gene expression in Clostridium difficile ATCC 43603 at 0.5 times MIC by real-time PCR analysis relative to control. In general terms: Quantitative PCR measures a nucleic acid by following its amplification.
Test [7] concerns Clostridioides difficile. Briefly: Upregulation of slpA gene expression in Clostridium difficile ATCC 43603-M1 at 0.5 times MIC by real-time PCR analysis relative to control.
Test [8] deals with Clostridioides difficile. The experiment in a line: Upregulation of slpA gene expression in Clostridium difficile CD07-259 at 0.5 times MIC by real-time PCR analysis relative to control.
Test [9] is described as follows: Antimicrobial activity against Clostridium difficile CD196 M1 by broth dilution method. The settings on record: Clostridioides difficile.
Test [10] concerns Clostridioides difficile. Briefly: Upregulation of slpA gene expression in Clostridium difficile ATCC 43603 at 0.5 times MIC by real-time PCR analysis relative to control.
The test system of test [11] is Clostridioides difficile. Briefly: Upregulation of fbp68 gene expression in Clostridium difficile ATCC 43603-M1 at 0.5 times MIC by real-time PCR analysis relative to control.
Test [12] has as its system Clostridioides difficile. Briefly: Upregulation of cwp84 gene expression in Clostridium difficile ATCC 43603 at 0.5 times MIC by real-time PCR analysis relative to control.
Test [13] relates to Clostridioides difficile. Briefly: Induction of Cwp84 protease expression in Clostridium difficile ATCC 43603-M1 at 0.5 times MIC by immunoblot analysis. Background: Immunoblotting shows a protein as a band on a membrane.
Test [14] concerns Clostridioides difficile. Briefly: Induction of Cwp84 protease expression in Clostridium difficile 6425 at 0.5 times MIC by immunoblot analysis.
Test [15] deals with Clostridioides difficile. Briefly: Upregulation of cwp84 gene expression in Clostridium difficile ATCC 43603-M1 at 0.5 times MIC by real-time PCR analysis relative to control.
The test system of test [16] is Clostridioides difficile. The experiment in a line: Upregulation of slpA gene expression in Clostridium difficile 6425 at 0.5 times MIC by real-time PCR analysis relative to control.
The subject of test [17] is Clostridioides difficile. The experiment in a line: Antimicrobial activity against Clostridium difficile ATCC 43603-M1 by broth dilution method.

For orientation: MIC means the smallest concentration in the dilution series that meets the test's criterion for growth inhibition. A high value points to a less susceptible organism.

In brackets after ≈: the same amount, converted by molar mass.

For the molecule `CC1(C)S[C@@H]2[C@H](NC(=O)[C@H](N)c3ccccc3)C(=O)N2[C@H]1C(=O)O` [AMPICILLIN], the MIC came out at 8 µg/mL (≈ 22.9 µM) with Clostridioides difficile [1]; 4 µg/mL (≈ 11.4 µM) in the test with Clostridioides difficile [2]; 2 µg/mL (≈ 5.72 µM) with Clostridioides difficile [3]; 2 µg/mL (≈ 5.72 µM) in the test with Clostridioides difficile [4]; 4 µg/mL (≈ 11.4 µM) with Clostridioides difficile [5].
As for `CCC[C@@H]1C[C@@H](C(=O)N[C@@H]([C@H]2O[C@H](SC)[C@H](O)[C@@H](O)[C@H]2O)[C@H](C)Cl)N(C)C1` [CLINDAMYCIN], the MIC turned out to be 128 µg/mL (≈ 301 µM) in the test with Clostridioides difficile [1]; 4 µg/mL (≈ 9.41 µM) in the test with Clostridioides difficile [2]; 4 µg/mL (≈ 9.41 µM) in the test on Clostridioides difficile [3]; 1 µg/mL (≈ 2.35 µM) in the test with Clostridioides difficile [4]; 128 µg/mL (≈ 301 µM) with Clostridioides difficile [5].
As to `CC1COc2c(N3CCN(C)CC3)c(F)cc3c(=O)c(C(=O)O)cn1c23` (configuration not stated) [OFLOXACIN], the “fold change (FC)” value is listed as 4.8 with Clostridioides difficile [6]; 32.8 in the test on Clostridioides difficile [7]; 22 in the test on Clostridioides difficile [8]; 3.9 with Clostridioides difficile [10]; 2.1 with Clostridioides difficile [11]; 3.2 in the test on Clostridioides difficile [12]. For the same molecule, the entries for the “fold change (FC)” value in the test with Clostridioides difficile [15] and with Clostridioides difficile [16] were 67.4 and 4, respectively. In addition, the MIC with Clostridioides difficile [1] amounted to 8 µg/mL (≈ 22.1 µM); with Clostridioides difficile [2], 256 µg/mL (≈ 708 µM); in [9], 128 µg/mL (≈ 354 µM); in the test with Clostridioides difficile [3] it was 8 µg/mL (≈ 22.1 µM); against Clostridioides difficile [4] it was 32 µg/mL (≈ 88.6 µM); against Clostridioides difficile [5], 256 µg/mL (≈ 708 µM). In the test with Clostridioides difficile [17], this molecule returned an MIC of 256 µg/mL (≈ 708 µM). The Activity is on record as 25% with Clostridioides difficile [13] and 130% in the test with Clostridioides difficile [14].

(Values after ChEMBL document CHEMBL1649303, “Effects of subinhibitory concentrations of antibiotics on colonization factor expression by moxifloxacin-susceptible and moxifloxacin-resistant Clostridium difficile strains” (2009).)
